Experimental findings from patent US9839632B2, “Methods and compositions using 4-amino-2-(2,6-dioxo-piperidine-3-yl)-isoindoline-1,3-dione for treatment and management of central nervous system cancers” (CELGENE CORPORATION, priority 2013, dated 2017) are described below.

A short description of the series: Blood and brain microdialysis (unbound concentrations) in male CD-IGS rats after single p.o. administration. The series is classed as in vivo, rat. As to conditions: for Kp / Tmax: rat. The text has this: Microdialysis: A total of 3 male CD-IGS rats were used. Stomach-cannulated CD-IGS rats (male, weight range: 250-300 g) supplied by Charles River Laboratories were used in this study. Following surgery, all animals were housed in BASi Raturn® containment systems with standard bedding material. Rat chow and water were available ad libitum, and all animals were kept in an ambient temperature room under a 6 am to 6 pm 12-hour lighting schedule.
Animal surgeries consisted of implanting a CMA/20 14/10PC vascular microdialysis probe (Part #8309571, CMA Microdialysis, North Chelmsford, Mass.) in the jugular vein, according to an IACUC protocol. Each animal was then stereotaxically implanted with an intracerebral guide directed toward the top of the striatum (A/P: 0.7, L/M: −3.0, DN: −3.0; from bregma), according to a rat stereotaxic atlas. Paxinos G. F. K., The mouse brain in stereotaxic coordinates (Academic Press, San Diego, Calif.) (2001). A BASi BR-4 brain microdialysis probe (Part # MD-2204, BASi, West Lafayette, Ind.) was inserted prior to recovery, and the probes were slowly perfused (0.5 μL/min) with either sterile lactated Ringer's (brain) or Dulbecco's phosphate-buffered saline (D-PBS; blood). Animals were allowed to recover for at least 24 hours prior to dosing. On the day of dosing, the blank perfusate was replaced with perfusate containing the probe calibrator, and flow was set to 1.25 μl/min. 4-amino-2-(2,6-dioxo-piperidine-3-yl)-isoindoline-1,3-dione was administered as a single p.o. administration via the stomach cannula, at 50 mg/kg (5 mL/kg) in a 0.5% A carboxymethylcellulose/0.25% Tween® 80 suspension formulation.
Microdialysate was collected in a cooling fraction collector, set at 4° C. (Eicom # EFC-82, EFR-82, Eicom, San Diego, Calif.) at intervals of 25 minutes for 10 hours after dosing. To calculate area-under-the-curve (AUC), the corrected concentration of each sample was multiplied by the interval over which the sample was collected; in this case 25 minutes, and divided by 60 minutes per hour. The sum of these values represented the total AUC value over the specified time range. To generate graphs, the concentration at each time point was plotted at the mid-point of each collection interval. Microdialysates were collected at the specified time points and analyzed for 4-amino-2-(2,6-dioxo-piperidine-3-yl)-isoindoline-1,3-dione concentration using a liquid chromatography-tandem mass spectrometry (LC-MS/MS) assay, within 12 hours. Interim storage was at 4° C.
Mass Spectral Analysis: Microdialysate samples were injected directly into the LC-MS/MS system without processing. Chromatographic separation was achieved using a Phenomenex Synergi C18 column (50×4.6 mm, 4 μm) with gradient elution of 0.1% formic acid in water and 0.1% formic acid in acetonitrile. Detection and quantitation were performed using positive electrospray in multiple reaction-monitoring (“MRM”) modes on a Waters Micromass Ultima tandem mass spectrometer. Transition ions monitored were m/z 274.1 to m/z 84.3 for the analyte and m/z 288.0 to m/z 98.0 for the probe calibrator CC-6032. Calibration was performed using weighted (1/x^2) quadratic regression of peak area. Two calibration curves for 4-amino-2-(2,6-dioxo-piperidine-3-yl)-isoindoline-1,3-dione in PBS and lactated ringers solution were constructed using standards at concentrations of 1.28, 2.56, 5.12, 10.2, 25.6, 64.0, 160, 400, 1000, and 2000 ng/mL. A quadratic regression model with a weighting of 1/(x^2) was used for the regression of calibration curves. Concentrations below the limit of quantitation (“BLOQ”) were treated as zero for calculations.

The mark [1] stands for this setting: microdialysis, male CD-IGS rats, single p.o. 50 mg/kg, n = 3, listed as 4-amino-2-(2,6-dioxo-piperidine-3-yl)-isoindoline-1,3-dione, 50 mg/kg.
[2] abbreviates: microdialysis, male CD-IGS rats, single p.o. 50 mg/kg, n = 3, listed as pomalidomide, 50 mg/kg.

Like-named read-outs stand apart in the source and are kept apart here.

`Nc1cccc2c1C(=O)N(C1CCC(=O)NC1=O)C2=O` (centres unmarked) [Pomalidomide, 4-amino-2-(2,6-dioxo-piperidine-3-yl)-isoindoline-1,3-dione]: the Kp (male, CD-IGS, oral, 50 mg/kg, crossed the blood brain barrier, rats, read-out: CNS penetration) is roughly 0.39. Moreover, under setting [1], the “AUC(0-10), unbound, Brain” value was determined as 2700 ± 740 ng·h/mL and the “Cmax, unbound, Brain” value worked out at 430 ± 63 ng/mL. Under setting [2], the “AUC ratio Brain:Blood (unbound)” value came out at 0.39 ± 0.03; the “AUC(0-10), unbound, Blood” value is 6800 ± 2000 ng·h/mL; the “AUC(0-10), unbound, Brain” value was 2700 ± 740 ng·h/mL; the “Cmax, unbound, Blood” value is 1100 ± 82 ng/mL. Moreover, the “Cmax, unbound, Brain” value under setting [2] is 430.0 ± 63 ng/mL. Also, the Tmax (blood (jugular vein) microdialysate, po, microdialysis, male CD-IGS rats, single p.o. 50 mg/kg, n = 3, read-out: Tmax, unbound, Blood) was 4.6 ± 2.4 h. For the setting “brain (striatum) microdialysate, po, microdialysis, male CD-IGS rats, single p.o. 50 mg/kg, n = 3, read-out: Tmax, unbound, Brain”, the Tmax turned out to be 4.1 ± 1.5 h. Moreover, where the note is “po, microdialysis, male CD-IGS rats, single p.o. 50 mg/kg, n = 3, read-out: AUC ratio Brain:Blood (unbound)”, the Kp is 0.39 ± 0.03.
